According to ChEMBL document CHEMBL1201862, “PubChem BioAssay data set” (2004):
Active and inactive are the calls of the source. Rule as the data show it, for most assays here: actives have a measured IC50 and inactives only a lower limit.

Experiments:
Assay type in all cases: functional
T-cell = experiment: inhibitors of CD8+ T cell–vesicle binding, dose response, mouse 2C CD8+ T cells, flow cytometry (AID 485284)
[1] = target: T1, Tyrosine-protein phosphatase non-receptor type 12 (Homo sapiens, UniProt Q05209); experiment: SAR Selectivity Analysis of small molecule inhibitors of PEST using pCAP in a fluorescence assay. [Related pubchem assays (depositor defined):AID1779, AID1784, AID2135]
T1 sequence (Q05209 whole entry): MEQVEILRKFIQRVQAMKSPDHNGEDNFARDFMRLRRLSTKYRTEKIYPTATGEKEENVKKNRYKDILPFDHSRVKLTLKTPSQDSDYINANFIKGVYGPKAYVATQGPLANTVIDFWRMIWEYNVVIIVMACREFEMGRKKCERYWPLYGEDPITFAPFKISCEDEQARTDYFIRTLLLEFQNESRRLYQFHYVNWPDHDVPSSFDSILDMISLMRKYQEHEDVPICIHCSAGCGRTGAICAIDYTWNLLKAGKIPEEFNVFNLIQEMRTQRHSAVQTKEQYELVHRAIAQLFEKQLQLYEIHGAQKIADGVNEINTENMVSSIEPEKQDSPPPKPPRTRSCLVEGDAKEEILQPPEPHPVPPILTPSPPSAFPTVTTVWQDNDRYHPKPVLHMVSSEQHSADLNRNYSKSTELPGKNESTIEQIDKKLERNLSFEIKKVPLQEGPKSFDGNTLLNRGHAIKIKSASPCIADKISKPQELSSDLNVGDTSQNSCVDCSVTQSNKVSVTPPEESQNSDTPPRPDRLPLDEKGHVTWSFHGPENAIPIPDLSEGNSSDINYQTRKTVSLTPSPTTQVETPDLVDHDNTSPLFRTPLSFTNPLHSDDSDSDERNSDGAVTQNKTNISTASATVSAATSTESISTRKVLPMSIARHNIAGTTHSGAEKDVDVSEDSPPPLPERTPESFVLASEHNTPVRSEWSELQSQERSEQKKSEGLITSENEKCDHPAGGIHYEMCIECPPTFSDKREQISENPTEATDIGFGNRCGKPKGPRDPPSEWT

[2] = target: T2, Tyrosine-protein phosphatase non-receptor type 22 (Homo sapiens, UniProt Q9Y2R2); experiment: SAR LYP1 Fluorescent Assay using OMFP substrate for In Vitro dose response studies - Set 3. [Related pubchem assays (depositor defined):AID1779, AID1784, AID2140, AID2686]
T2 sequence (Q9Y2R2 whole entry): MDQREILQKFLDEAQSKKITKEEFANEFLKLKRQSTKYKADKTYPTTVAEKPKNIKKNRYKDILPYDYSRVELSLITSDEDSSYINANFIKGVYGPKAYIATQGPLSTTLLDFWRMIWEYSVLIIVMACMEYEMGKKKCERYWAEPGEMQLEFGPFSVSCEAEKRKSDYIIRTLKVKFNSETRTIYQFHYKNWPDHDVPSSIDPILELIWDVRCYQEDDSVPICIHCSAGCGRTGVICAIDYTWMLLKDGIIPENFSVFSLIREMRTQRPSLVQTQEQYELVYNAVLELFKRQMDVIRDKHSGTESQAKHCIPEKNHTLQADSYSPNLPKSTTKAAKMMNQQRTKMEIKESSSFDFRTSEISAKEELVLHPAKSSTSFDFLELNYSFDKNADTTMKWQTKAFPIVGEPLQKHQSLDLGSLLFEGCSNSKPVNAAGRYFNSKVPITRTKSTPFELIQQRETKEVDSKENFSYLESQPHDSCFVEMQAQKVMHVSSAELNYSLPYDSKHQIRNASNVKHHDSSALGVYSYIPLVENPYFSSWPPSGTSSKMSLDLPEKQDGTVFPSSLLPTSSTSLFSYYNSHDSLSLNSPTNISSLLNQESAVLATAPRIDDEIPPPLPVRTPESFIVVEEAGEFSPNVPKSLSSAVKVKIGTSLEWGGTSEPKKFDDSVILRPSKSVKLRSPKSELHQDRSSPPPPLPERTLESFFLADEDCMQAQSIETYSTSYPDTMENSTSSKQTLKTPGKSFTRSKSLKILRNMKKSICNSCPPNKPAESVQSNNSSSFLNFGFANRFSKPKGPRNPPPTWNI

[3] = target: T3, Tyrosine-protein phosphatase non-receptor type 7 (Homo sapiens, UniProt P35236); experiment: redox-dependent HePTP inhibition, mechanism study, biochemical, fluorescence (AID 2068)
T3 sequence (P35236 whole entry): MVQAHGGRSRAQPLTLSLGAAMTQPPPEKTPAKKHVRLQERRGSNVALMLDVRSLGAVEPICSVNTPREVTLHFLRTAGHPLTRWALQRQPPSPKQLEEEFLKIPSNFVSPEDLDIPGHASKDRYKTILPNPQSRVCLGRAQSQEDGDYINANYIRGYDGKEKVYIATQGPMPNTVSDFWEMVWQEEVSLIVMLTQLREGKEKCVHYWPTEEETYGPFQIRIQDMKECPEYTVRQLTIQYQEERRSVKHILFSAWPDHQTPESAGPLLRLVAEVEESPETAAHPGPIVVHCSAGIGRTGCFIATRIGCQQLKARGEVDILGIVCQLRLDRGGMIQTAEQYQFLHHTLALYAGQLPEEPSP

[4] = target: T2, Tyrosine-protein phosphatase non-receptor type 22; experiment: LYP (PTPN22) phosphatase inhibitor potency, SAR follow-up, biochemical, pCAP fluorogenic substrate, fluorescence, set 3 (AID 449727)
[5] = target: Dual specificity protein phosphatase 3 (Homo sapiens, UniProt P51452); experiment: SAR VHR1 Fluorescent Assay for In Vitro dose response studies Set 2. [Related pubchem assays (depositor defined):AID1654, AID1661, AID1878]
[6] = target: T4, Dual specificity protein phosphatase 6 (Rattus norvegicus, UniProt Q64346);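 also: confirmatory in vitro dose-response testing of MKP-3 inhibition; recombinant His-tagged MKP-3 made in E. coli BL21 with OMFP substrate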
T4 sequence (Q64346 whole entry): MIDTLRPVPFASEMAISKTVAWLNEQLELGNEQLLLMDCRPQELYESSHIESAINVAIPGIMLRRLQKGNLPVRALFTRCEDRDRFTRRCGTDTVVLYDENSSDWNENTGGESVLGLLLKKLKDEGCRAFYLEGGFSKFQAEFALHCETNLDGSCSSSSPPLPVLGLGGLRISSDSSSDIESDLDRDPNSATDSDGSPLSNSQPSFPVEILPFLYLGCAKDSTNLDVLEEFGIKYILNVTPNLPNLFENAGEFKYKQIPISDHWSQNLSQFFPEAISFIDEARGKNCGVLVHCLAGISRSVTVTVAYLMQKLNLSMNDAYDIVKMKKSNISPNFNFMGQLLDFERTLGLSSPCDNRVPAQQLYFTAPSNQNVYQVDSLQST

[7] = target: T5, Short transient receptor potential channel 4 (Mus musculus, UniProt Q9QUQ5); experiment: TRPC4 positive allosteric modulators, dose response, cell-based, HEK293 TRPC4/mu-opioid, Fluo-4 calcium, EC20 DAMGO (AID 434941)
T5 sequence (Q9QUQ5 whole entry): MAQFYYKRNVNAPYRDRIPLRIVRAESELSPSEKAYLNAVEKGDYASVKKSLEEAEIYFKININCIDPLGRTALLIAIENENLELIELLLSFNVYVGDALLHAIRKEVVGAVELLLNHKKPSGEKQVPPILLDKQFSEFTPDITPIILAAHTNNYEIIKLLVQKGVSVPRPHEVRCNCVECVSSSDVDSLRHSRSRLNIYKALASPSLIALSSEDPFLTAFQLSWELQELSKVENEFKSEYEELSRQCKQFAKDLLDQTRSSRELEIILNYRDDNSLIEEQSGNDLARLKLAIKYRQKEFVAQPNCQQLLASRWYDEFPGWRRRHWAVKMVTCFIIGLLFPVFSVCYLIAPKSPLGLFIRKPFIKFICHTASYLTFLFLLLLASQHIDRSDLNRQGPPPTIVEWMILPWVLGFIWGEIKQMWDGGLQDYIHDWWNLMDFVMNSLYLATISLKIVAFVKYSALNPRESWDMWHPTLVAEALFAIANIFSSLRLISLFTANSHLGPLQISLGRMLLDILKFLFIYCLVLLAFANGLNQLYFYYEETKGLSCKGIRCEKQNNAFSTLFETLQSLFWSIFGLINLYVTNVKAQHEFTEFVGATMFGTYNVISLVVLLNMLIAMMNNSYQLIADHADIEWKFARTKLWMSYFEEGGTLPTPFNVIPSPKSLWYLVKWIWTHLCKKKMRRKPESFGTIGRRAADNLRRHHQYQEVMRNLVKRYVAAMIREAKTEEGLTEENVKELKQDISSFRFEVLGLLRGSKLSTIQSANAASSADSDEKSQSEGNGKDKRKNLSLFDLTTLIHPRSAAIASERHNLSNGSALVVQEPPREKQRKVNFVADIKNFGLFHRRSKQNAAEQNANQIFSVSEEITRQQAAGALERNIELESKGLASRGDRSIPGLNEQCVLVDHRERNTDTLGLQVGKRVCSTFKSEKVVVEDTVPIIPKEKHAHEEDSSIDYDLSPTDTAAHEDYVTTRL

Sequence of Dual specificity protein phosphatase 3 (P51452 whole entry): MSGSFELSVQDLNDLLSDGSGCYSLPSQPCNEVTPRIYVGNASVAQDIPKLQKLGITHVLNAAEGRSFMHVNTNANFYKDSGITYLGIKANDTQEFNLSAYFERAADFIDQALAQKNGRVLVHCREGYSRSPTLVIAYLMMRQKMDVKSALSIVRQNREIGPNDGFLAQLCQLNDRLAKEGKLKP

O=C(OCCOc1cccc(Cl)c1)c1ccc(F)c(S(=O)(=O)N2CCOCC2)c1
EC50 (T-cell): 12.4 µM (active)

COc1cc(/C=C2\SC(=O)N(CC(=O)Nc3cccc(C)c3)C2=O)cc(Cl)c1OCC(=O)O
IC50 [1]: 2.2 µM (active) | IC50 [2]: 4.96 µM (active) | IC50 [3]: 3.63 µM (active) | IC50 [4]: 3.69 µM (active) | IC50 [5]: 17.9 µM (active) | IC50 [6]: > 100 µM (inactive)

COC(=O)[C@@]12CCCCN1[C@H](c1ccc(-c3cccc(Cl)c3)c(OC)c1)[C@H]1C(=O)N(C)C(=O)[C@H]12
EC50 [7]: 2.11 µM (active)
